Article PMC4686899, “Peptides derived from CXCL8 based on in silico analysis inhibit CXCL8 interactions with its receptor CXCR1” (Scientific Reports, 2015)
Ends that are not written are not given here.

Columns and labels:
HMEC-1 = test: Cell viability assay (WST-1); assay type: cell-based, human; settings: various concentrations of p_wt14, 24 and 48 h, WST-1, vs control
Description: (§1) Human micro-vascular endothelial cell-1 (HMEC-1, from American Type Culture Collection Manassas, USA) was maintained in MCDB 131 medium (Sigma, USA) with L-glutamine and fetal bovine serum (Sigma, USA) to a final concentration of 15%. The medium was supplemented with 500 units/ml penicillin (Biowest, USA), 500 μg/ml streptomycin (Biowest, USA), 10 ng/ml Epidermal Growth Factor (ProSpec, USA) and 1 µg/ml hydrocortisone (Sigma, USA). The THP-1 cells were maintained in the RPMI-1640 medium (Invitrogen, USA) with 10% FBS.
To evaluate if the peptide p_wt14 is toxic to the HMEC-1 under resting conditions, 2 × 10^4 cells were dispensed into each well of 96-well micro-plates and incubated for 2 hours for adhesion. After that, the medium containing peptide p_wt14 at various concentrations was added. After 24 and 48 hours of incubation, cells were washed with Hank’s balanced salt solution and the viabilities of HMEC-1were determined by WST-1 assay kit (Roche, USA). Each experiment was performed in quadruplicate and repeated at least three times.

[1] = system: THP-1 cell adhesion to CXCL8-treated HMEC-1; assay type: cell-based, human; settings: 25 ng/ml CXCL8, 18 h, no peptide, vs control
Description: Human micro-vascular endothelial cell-1 (HMEC-1, from American Type Culture Collection Manassas, USA) was maintained in MCDB 131 medium (Sigma, USA) with L-glutamine and fetal bovine serum (Sigma, USA) to a final concentration of 15%. The medium was supplemented with 500 units/ml penicillin (Biowest, USA), 500 μg/ml streptomycin (Biowest, USA), 10 ng/ml Epidermal Growth Factor (ProSpec, USA) and 1 µg/ml hydrocortisone (Sigma, USA). The THP-1 cells were maintained in the RPMI-1640 medium (Invitrogen, USA) with 10% FBS. For the assay of THP-1 cell adhesion to HMEC-1 monolayers, confluent HMEC-1 cell monolayers cultured on 24-well plates were pretreated with peptides for one hour and activated with 25 ng/ml LPS (Sigma, USA) or full length CXCL8 (ProSpec, USA) for 18 hours. THP-1 monocytes were suspended in RPMI 1640 and prelabeled with 5 mM Calcein-AM (Invitrogen, USA) for 30 minutes. Before the THP-1 cells were added to HMEC-1, the monolayers were washed twice to remove LPS or CXCL8. Fluorescence labeled monocytes (3 × 10^5 cells/well) were then added to HMEC-1 and incubated for 30 minutes at 37 °C. […] The images of adhered THP-1 cells were photographed (five images per well) under fluorescent microscopy and the number of attached monocytes was counted with the software AlphaImager 2200 (Alpha Innotech, USA).

[2] = system: THP-1 transmigration across CXCL8-stimulated HMEC-1; test: CXCL8-induced monocyte transendothelial migration across HMEC-1 (Transwell); assay type: cell-based, human; settings: 25 ng/ml CXCL8, 18 h, vs absence of CXCL8
Description: as §1
Migration of THP-1 cells across HMEC-1 was performed in a Transwell system (BD Bioscences, USA). Briefly, HMEC-1 cells cultured on transwell (polycarbonate membranes with 8 μm pore sizes) filters were pretreated with peptides for one hour and then stimulated with 25 ng/ml LPS or CXCL8 for 18 hours. THP-1 monocytes (2 × 10^5 cells/well) were added to the upper chamber of transwell inserts containing 50 μl RPMI 1640. LPS (25 ng/ml), CXCL8 peptide (p_wt14) (0.5 and 5 mM), or both combinations were added to the lower chamber to initiate transmigration. After four hours of incubation at 37 °C under 5% CO2, cells that had transmigrated to the lower chamber were harvested and counted using microscopy. All experiments were measured in at least three independent studies, and the data represent the number of transmigrated THP-1 cells.

[3] = target: CXCR1p receptor-derived peptide (Homo sapiens), P25024; test: SPR; settings: modification not given
Sequence of CXCR1p receptor-derived peptide (Homo sapiens), P25024 (P25024 9-29): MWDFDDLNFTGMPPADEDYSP

For QCIKTYSKPFHPKF [p_wt14], which “HMEC-1 cell viability (in words)” value (HMEC-1) is on record?
The value was “no significant cell viability difference”.

Which results are given for “CXCL8: chemokine CXCL8 (also known as interleukin-8 or IL-8), full length”?
effect of CXCL8 on monocyte adhesion to HMEC-1 (in words) [1]: significant increase in the number of adhered monocytes; effect of CXCL8 on monocyte transmigration (in words) [2]: considerable increase in monocyte transmigration

How did the Kd [3] turn out when IKTYSKPFHPKFIK [CXCL8 peptide p_wt14 14-residue peptide, P10145] was run?
The Kd was 252 µM.
